Test results reported in article PMC3313936 (PLoS ONE, 2012).
Like-named read-outs stand apart in the source and are kept apart here.

Tests used:
CBM32-5 [1] = target: T1, CBM32-5 (Clostridium perfringens, UniProt A0A0H2YU91); details: 20 mM Tris-HCl pH 8.0; 20 °C (table; methods say 25 °C)
T1 construct: gene CPF_0859

CBM32-5 [2] = target: T1, CBM32-5; details: glycan immobilised on array; labelled protein
CBM32-5 [3] = target: T1, CBM32-5; details: 20 mM Tris-HCl pH 8.0; 20 °C (table; methods say 25 °C); n fixed at 1
CBM32-4 = target: T2, CBM32-4 (Clostridium perfringens, UniProt A0A0H2YU91); details: 50 mM HEPES pH 7.5, 25 °C; one-site fit, n fixed at 1
T2 construct: gene CPF_0859

CBM32-3 = target: T3, CBM32-3 (Clostridium perfringens, UniProt A0A0H2YU91); details: 50 mM HEPES pH 7.5, 25 °C; one-site fit, n fixed at 1
T3 construct: gene CPF_0859

CBM32-5 [4] = target: T1, CBM32-5; details: co-crystallised with 10 mM ligand, pH 5.6

CC(=O)N[C@H]1C(O)O[C@H](CO)[C@H](O)[C@@H]1O (stereo partly drawn) [D-GalNAc]
Ka (M^-1) (CBM32-5 [1]): 5.01 (±0.64)×10^3

OC[C@H]1OC(O)[C@H](O)[C@@H](O)[C@H]1O (stereo partly drawn) [D-galactose]
Ka (M^-1) (CBM32-5 [1]): 1.69 (±0.05)×10^3

CC(=O)N[C@H]1C(O)O[C@H](CO)[C@H](O)[C@@H]1O[C@@H]1O[C@H](CO)[C@H](O)[C@H](O)[C@H]1O (stereo partly drawn) [Gal-β-1,3-GalNAc]
Ka (M^-1) (CBM32-5 [1]): 3.77 (±0.34)×10^3

CC(=O)N[C@H]1[C@@H](O[C@@H]2[C@H](O)[C@@H](O[C@@H]3O[C@@H](C)[C@@H](O)[C@@H](O)[C@@H]3O)[C@H](O[C@H]3[C@H](O)[C@@H](NC(C)=O)C(O)O[C@@H]3CO)O[C@@H]2CO)O[C@H](CO)[C@H](O)[C@@H]1O (stereo partly drawn) [GalNAc-α-1,4(Fuc-α-1,2)-Gal-β-1,4-GlcNAc]
glycan microarray (CBM32-5 [2]): this synthetic carbohydrate was clearly the top ligand from the array analysis

CC(=O)N[C@H]1[C@H](O[C@H]2[C@@H](O)[C@@H](CO)OC(O)[C@@H]2O)O[C@H](CO)[C@H](O)[C@@H]1O (stereo partly drawn) [GalNAc-β-1,3-Gal]
Ka (M^-1) (CBM32-5 [3]): 3.40 (±0.10)×10^3

CC(=O)N[C@H]1[C@@H](O[C@@H]2[C@H](O)[C@@H](O)C(O)O[C@@H]2CO)O[C@H](CO)[C@@H](O)[C@@H]1O (stereo partly drawn) [GlcNAc-α-1,4-Gal]
association constant (CBM32-4): 1.38 (±0.08)×10^4
association constant (CBM32-3): 2.64 (±0.64)×10^4

OC[C@H]1O[C@@H](O[C@H]2[C@H](O)[C@@H](O)C(O)O[C@@H]2CO)[C@H](O)[C@@H](O)[C@H]1O (stereo partly drawn) [Lactose]
Ka (M^-1) (CBM32-5 [1]): 2.40 (±0.58)×10^3

CC(=O)N[C@H]1[C@@H](OC[C@H](N)C(=O)O)O[C@H](CO)[C@H](O)[C@@H]1O [Tn antigen, N-acetyl-α-D-galactosaminyl-1-O-serine]
X-ray crystal structure of complex, 1.70 Å (CBM32-5 [4]): 4a44 for CBM32-5 in complex with the Tn Antigen
